Reference: patent publication US12384771B2, “Pleuromutilin derivative containing thiazole-pyridine benzyl quaternary ammonium salt side chain and preparation method and use thereof” (SHAANXI UNIVERSITY OF SCIENCE AND TECHNOLOGY, priority 2022, dated 2025)
Where a name gives a salt, the structure may show the parent alone.

What was measured:
[1] = test system: Escherichia coli ATCC 25922; assay: MIC, microbroth dilution, standard strains; assay type: cell-based; settings: ATCC25922, ATCC 25922, read-out: Minimum inhibitory concentration
In short: (§1)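 Broth microdilution MIC determination for pleuromutilin derivatives bearing a thiazole-pyridine benzyl quaternary ammonium side chain, with moxifloxacin as positive control. Standard gram-positive and gram-negative reference strains tested.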

[2] = test system: Escherichia coli CMCC 44103; assay: MIC, microbroth dilution, standard strains; assay type: cell-based; settings: CMCC44103, CMCC 44103, read-out: Minimum inhibitory concentration
In short: as §1

Salmonella ATCC 14028 = assay: MIC, microbroth dilution, standard strains; assay type: cell-based; settings: ATCC14028, ATCC 14028, read-out: Minimum inhibitory concentration
In short: as §1

[3] = test system: Staphylococcus aureus ATCC 25923; assay: MIC, microbroth dilution, standard strains; assay type: cell-based; settings: ATCC25923, ATCC 25923, read-out: Minimum inhibitory concentration
In short: as §1

[4] = test system: Staphylococcus aureus ATCC 29213; assay: MIC, microbroth dilution, standard strains; assay type: cell-based; settings: ATCC29213, ATCC 29213, read-out: Minimum inhibitory concentration
In short: as §1

[5] = test system: Staphylococcus epidermidis ATCC 12228; assay: MIC, microbroth dilution, standard strains; assay type: cell-based; settings: ATCC12228, ATCC 12228, read-out: Minimum inhibitory concentration
In short: as §1

[6] = test system: methicillin-resistant Staphylococcus aureus ATCC 33591; assay: MIC, microbroth dilution, standard strains; assay type: cell-based; settings: ATCC33591, ATCC 33591, read-out: Minimum inhibitory concentration
In short: as §1

[7] = test system: Mycoplasma gallisepticum R strain (MG-R); assay: Anti-mycoplasma activity assay, MIC; assay type: cell-based; settings: Mycoplasmoides gallisepticum
Method: (§2) The minimum inhibitory concentration of the pleuromutilin derivative containing thiazole-pyridine benzyl quaternary ammonium salt side chain against different mycoplasmas was tested with tiamulin as (purchased from Shanghai Yuanye Bio-Technology Co., Ltd) a positive control using a microbroth dilution method, and the antibacterial effect of the compound against different mycoplasmas was evaluated.
(§3) Experimental strains include Mycoplasma hyopneumoniae standard strain J strain (Mhp-J; NCTC 10110), Mycoplasma hyopneumoniae clinical isolate LH strain (Mhp-LH), Mycoplasma hyorhini standard strain BTS-7 strain (Mhr-BTS-7; NCTC 10130), Mycoplasma gallisepticum R strain (MG-R) and Mycoplasma synoviae WVU1853 strain (MS-WVU1853; NCTC 10124) (purchased from National Collection of Type Cultures, United Kingdom).
(§4) The specific operation steps are as follows: • (1) preparation of KM2 medium: 38.9 g of KM2 medium (purchased from Guangdong Huankai Microbial Sci. & Tech. Co., Ltd.) was weighed, added to 800 mL of distilled water, boiled and dissolved, and autoclaved at 115° C. for 20 min for later use. • (2) preparation of bacterial liquid stock: 0.5 mL of each of Mycoplasma hyopneumoniae (Mhp), Mycoplasma hyorhina (Mhr), Mycoplasma gallisepticum (MG) and Mycoplasma synoviae (MS) was taken and transferred to 4.5 mL of KM2 liquid medium, and when the colour of the medium turned yellow, each of the bacteria was sub-packaged at 0.5 mL per tube, and stored as the bacterial liquid at −70° C. • (3) determination of bacterial liquid titre (colour change unit, CCU): 96-well plate method was used to measure the bacterial liquid titre. The preserved bacterial liquid stock was taken from −70° C., melt and equilibrated to room temperature. 0.18 mL of KM2 medium was added to each well of the middle 4 rows of the 96-well plate (that is, 4 parallels), 0.02 mL of the bacterial liquid stock was taken and added to the wells of the first column, respectively, and subjected to 10-fold dilution until 10^−11. A negative control containing only KM2 medium was set (column 12). The plate was sealed and put into an incubator at 37° C., and the results were observed day by day. The highest dilution at which the colour of the medium can change was the CCU/mL of the strain. • (4) determination of MIC: the minimum inhibitory concentration of the compound against mycoplasmas was determined by a microbroth dilution method. Each drug to be tested was prepared as a stock solution with a concentration of 2560 μg/mL, and each drug stock solution was 2-fold diluted with KM2 liquid medium, and the test concentration range was 0.015-128 μg/mL (large concentration gradient) and 0.000004-0.06 μg/mL (small concentration gradient). An appropriate amount of seed bacterial liquid was taken and diluted to 10^4 CCU/mL serially according to its titre. Drugs of various dilutions were added sequentially to the 96-well plate, and then an equal amount of diluted bacterial liquid was added. 200 μL of diluted mycoplasma liquid was set as a positive control, 200 μL of KM2 liquid culture medium was set as a negative control, and a solvent control group (10 μL of drug solvent+190 μL of mycoplasma liquid) was also set. Three parallels were set for each experiment. After all the culture plates were sealed, they were allowed to culture at 37° C. and observed daily, and the final MIC values were recorded. (See FIG. 22 for the MIC determination results of the representative compound 7 against 5 mycoplasma strains)

[8] = test system: Mycoplasma hyopneumoniae clinical isolate LH strain (Mhp-LH); assay: Anti-mycoplasma activity assay, MIC; assay type: cell-based; settings: Mesomycoplasma hyopneumoniae
Method: as §2, §3, §4

[9] = test system: Mycoplasma hyopneumoniae standard strain J strain (Mhp-J; NCTC 10110); assay: Anti-mycoplasma activity assay, MIC; assay type: cell-based; settings: Mesomycoplasma hyopneumoniae, NCTC10110
Method: as §2, §3, §4

[10] = test system: Mycoplasma hyorhini standard strain BTS-7 strain (Mhr-BTS-7; NCTC 10130); assay: Anti-mycoplasma activity assay, MIC; assay type: cell-based; settings: NCTC10130
Method: as §2, §3, §4

[11] = test system: Mycoplasma synoviae WVU1853 strain (MS-WVU1853; NCTC 10124); assay: Anti-mycoplasma activity assay, MIC; assay type: cell-based; settings: Mycoplasmopsis synoviae, NCTC10124
Method: as §2, §3, §4

[12] = Determination of solubility of compounds (HPLC); settings: thermodynamic from solid
Method: Experimental method: representative compounds 2, 4 and 7 were selected for solubility determination, and retapamulin hydrochloride was used as a control. 1 mg of each sample was taken and quantitatively dissolved in a 10 mL volumetric flask, and the absorption peak area was measured by a high-performance liquid chromatography; then, the saturated solutions of the representative compounds 2, 4 and 7 and the control drug retapamulin were diluted 10-fold, and the absorption peak area was determined by HPLC; their respective solubility was obtained by calculating the absorption peak area.
The experimental instrument was Shimadzu LC-16, the chromatographic column was Hypersil C18 ODS (4.6×250 mm×5 μm), the flow rate was 1.0 mL/min, the detection wavelength was 300 nm, and the mobile phase was 0.05 mol/L of aqueous acetic acid solution:acetonitrile=30:70.

With `C=C[C@]1(C)C[C@@H](OC(=O)CSc2nc(-c3cc[n+](Cc4ccc([N+](=O)[O-])cc4)cc3)cs2)[C@]2(C)[C@H](C)CC[C@]3(CCC(=O)[C@H]32)[C@@H](C)[C@@H]1O` [Compound 7, 1-(4-(nitro)benzyl)-4-(2-(8-hydroxy-4,7,9,12-tetramethyl-3-oxo-7-vinyldecahydro-4,9a-propancyclopent[8]cyclen-5-yl)oxy)-2-oxoethyl)thiazol-4-yl)pyridyl bromide salt] as the compound, how does the MIC [1] read?
Its MIC is 1 µg/mL.

What about the MIC [2] of the same compound?
Its MIC is 0.5 µg/mL.

What about the MIC (Salmonella ATCC 14028) of the same compound?
Its MIC is 2 µg/mL.

And the MIC [3]?
Its MIC is 0.5 µg/mL.

And the MIC [4]?
Its MIC is 0.125 µg/mL.

And the MIC [5]?
The MIC was 2 µg/mL.

And the MIC [6]?
The MIC was 1 µg/mL.

And the MIC [7]?
Its MIC is 0.004 µg/mL.

And the MIC [8]?
The MIC was 0.002 µg/mL.

What about the MIC [9] of the same compound?
The MIC was 0.004 µg/mL.

And the MIC [10]?
Its MIC is 0.008 µg/mL.

What about the MIC [11] of the same compound?
Its MIC is 0.015 µg/mL.

What about the solubility ([12]; organic solvent or mixture) of the same compound?
The solubility was 11300 µg/mL.

What about the solubility ([12]; pH 1.5, simulated gastric fluid) of the same compound?
The solubility was 3450 µg/mL.

And the solubility ([12]; pH 7, water)?
Its solubility is 2540 µg/mL.
